Source: patent US7572765B2, “Conformationally constrained parathyroid hormone (PTH) analogs” (The General Hospital Corporation, priority 2001, dated 2009)
Square brackets hold non-standard residues; d marks the D form. Peptide text beside a SMILES is read from it. hArg = N=C(N)NCCCC[C@H](N)C(=O)O; Aib = CC(C)(N)C(=O)O

Columns and labels:
human P1R = target: T1, human P1R (Homo sapiens, UniProt Q03431); test: Competition binding in HKRK-B28 cells; details: HKRK-B28 cells; for IC50 / Binding IC50: tracer 125I-[M]PTH(1-21)amide, 4 h at 4° C., N.B. = no binding detected at 10 μm peptide
T1 construct: expressed in transfected cells; host or cells: HKRK-B28 (porcine kidney LLC-PK1, stably transfected)
T1 sequence (Q03431 27-593): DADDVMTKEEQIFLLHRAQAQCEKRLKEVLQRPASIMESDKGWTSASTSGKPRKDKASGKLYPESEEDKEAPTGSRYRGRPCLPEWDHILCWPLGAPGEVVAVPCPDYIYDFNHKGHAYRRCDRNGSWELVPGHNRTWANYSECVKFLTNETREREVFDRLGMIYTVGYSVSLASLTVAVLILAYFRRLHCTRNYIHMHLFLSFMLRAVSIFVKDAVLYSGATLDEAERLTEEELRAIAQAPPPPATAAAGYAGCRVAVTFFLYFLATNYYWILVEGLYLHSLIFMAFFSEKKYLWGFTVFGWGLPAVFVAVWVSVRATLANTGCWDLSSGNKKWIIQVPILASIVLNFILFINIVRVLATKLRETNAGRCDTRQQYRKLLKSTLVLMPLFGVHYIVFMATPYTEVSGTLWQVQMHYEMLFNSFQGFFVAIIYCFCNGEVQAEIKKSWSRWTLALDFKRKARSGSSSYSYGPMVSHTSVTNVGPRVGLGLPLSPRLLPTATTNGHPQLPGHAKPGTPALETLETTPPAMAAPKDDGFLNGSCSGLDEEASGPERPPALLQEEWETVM
Method: (§1) Cell Culture. The cell line HKRK-B28 (Takasu, H., et al., J. Bone Miner. Res. 14:11-20 (1999)) was derived from the porcine kidney cell line, LLC-PK1 by stable transfection with plasmid DNA encoding the human P1R and expresses ˜280,000 receptors per cell. These cells, as well as COS-7 cells and SaOS-2-B10 cells, were cultured at […] in T-75 flasks ([…]) in Dulbecco's modified Eagle's medium (DMEM) supplemented with fetal bovine serum (10%), penicillin G (20 units/ml), streptomycin sulfate (20 μg/ml) and amphotericin B (0.05 μg/ml) in a humidified atmosphere containing 5% CO2. Stock solutions of EGTA/trypsin and antibiotics were from GIBCO; fetal bovine serum was from Hyclone Laboratories (Logan, Utah). COS-7 cells sub-cultured in 24-well plates were transfected with plasmid DNA (200 ng per well) encoding the wild-type human P1R or truncated human P1R deleted for residues (24-181) (Shimizu, M., et al., J. Biol. Chem. 275:21836-21843 (2000)) that was purified by cesium chloride/ethidium bromide density gradient centrifugation, and FuGENE 6 transfection reagent (Roche Indianapolis Ind.) according to the manufacturer's recommended procedure. All cells, in 24-well plates, were treated with fresh media and shifted to 33° C. for 12 to 24 h prior to assay.
Competition Binding. Binding reactions were performed with HKRK-B28 cells or in COS-7 cells in 24-well plates. The cells were rinsed with 0.5 mL of binding buffer, and then treated successively with 100 μL binding buffer, 100 μL of binding buffer containing various amounts of unlabeled competitor ligand, and 100 μL of binding buffer containing ca. 100,000 cpm of ^125I-[M]PTH(1-21) or ^125I-[Aib^1,3,M]PTH(1-21)} (ca. 26 fmol; final volume=300 μL). Incubations were 4 to 6 h at 4° C., at which time near equilibrium conditions were attained. Cells were then placed on ice, the binding medium was removed, and the monolayer was rinsed three times with 0.5 mL of cold binding buffer. The cells were subsequently lysed with 0.5 mL […] and counted for radioactivity. For each tracer and in each experiment, the non-specific binding was determined as the radioactivity that bound in the presence of the same unlabeled peptide at a concentration of 1 μM, and was ˜1% of total radioactivity added for each tracer. The maximum specific binding (B0) was the total radioactivity bound in the absence of competing ligand, corrected for nonspecific binding, and for each tracer, ranged from 8% to 20% of the total radioactivity added. Nonlinear regression was used to calculate binding IC50 values (see below). Scatchard transformations of homologous competition binding data derived from studies with 26 fmol of ^125I-[Aib^1,3,M]PTH(1-21) were employed for estimations of apparent equilibrium dissociation constant (kDapps) and total number of ligand binding sites (Bmax), assuming a single class of binding sites and equal affinities of the iodinated and non iodinated ligand.
(§2) Data Calculation. Calculations were performed using Microsoft® Excel. Nonlinear regression analyses of binding and cAMP dose-response data were performed using the four-parameter equation: yp=Min+[(Max−Min)/(1+(IC50/x)^slope)]. The Excel Solver function was utilized for parameter optimization, as described previously (Carter, P. H., et al., Endocrinology 140: 4972-4981 (1999); Bowen, W. P., and Jerman, J. C., Trends in Pharmacol. Sci. 16: 413-417 (1995)). Differences between paired data sets were statistically evaluated using a one-tailed Student's t-test, assuming unequal variances for the two sets.
The P1R-binding properties of these analogs were assayed in competition studies performed in […]. In previous studies, PTH(1-14) binding could not be detected using ^125I-PTH(1-34) and related N-terminally intact and relatively unmodified radioligands (Luck, M. D., et al., Molecular Endocrinology 13:670-680 (1999)). […]

[1] = target: T2, PTH-1 receptor endogenously expressed in SaOS-2 cells (Homo sapiens, UniProt Q03431); test: cAMP stimulation in SaOS-2 cells; assay type: cell-based; details: for EMAX(obs.): basal 6.4 ± 0.8; for EC50: N.R. = no cAMP response detected
T2 construct: endogenously expressed relatively low levels of the PTH-1 receptor; endogenous in cells; host or cells: SaOS-2 (SaOS-2-B10) human osteosarcoma cells
T2 sequence (Q03431 27-593): T1 sequence (Q03431 27-593)
Method: as §1
cAMP Stimulation. Stimulation of cells with peptide analogs was performed in 24-well plates. Cells were rinsed with 0.5 mL of binding buffer (50 mM Tris-HCI, […], 5 mM KCl, 2 mM CaCl2, 5% heat-inactivated horse serum, 0.5% fetal bovine serum, adjusted to pH 7.5 with HCl) and treated with 200 μL of cAMP assay buffer (Delbecco's modified Eagle's medium containing 2 mM 3-isobutyl-1-methylxanthine, 1 mg/mL bovine serum albumin, 35 mM Hepes-NaOH, pH 7.4) and 100 μL of binding buffer containing varying amounts of peptide analog (final volume=300 μL). The medium was removed after incubation for 30 to 60 minutes at room temperature, and the cells were frozen on dry ice, lysed with 0.5 mL 50 mM HCl, and refrozen ([…]). The cAMP content of the diluted lysate was determined by radioimmunoassay. The EC50 response values were calculated using nonlinear regression (see below).
as §2
The number of PTH-1 receptors expressed on the surface of the PTH target cells in bone or kidney is uncertain, but it is likely to be considerably lower than that found in HKRK-B28 cells. Therefore, several of the Aib-mounted PTH analogs were evaluated using SaOS-2 cells.

`CC[C@H](C)[C@H](NC(=O)[C@H](CCC(=O)O)NC(=O)C(C)(C)NC(=O)[C@@H](NC(=O)C(C)(C)N)C(C)C)C(=O)N[C@@H](CCC(N)=O)C(=O)N[C@@H](CC(C)C)C(=O)N[C@@H](CCSC)C(=O)N[C@@H](Cc1c[nH]cn1)C(=O)N[C@@H](CCC(N)=O)C(=O)N[C@@H](CCCCNC(=N)N)C(N)=O` [[Aib^1,3,M]PTH(1-11), AibValAibGluIleGlnLeuMetHisGlnHar] (H-[Aib]V[Aib]EIQLMHQ[hArg]-NH2) gave an IC50 (human P1R) of 9.7e-07 ± 3e-07 M.

With `CC[C@H](C)[C@H](NC(=O)[C@H](CCC(=O)O)NC(=O)[C@H](C)NC(=O)[C@@H](NC(=O)[C@H](C)N)C(C)C)C(=O)N[C@@H](CCC(N)=O)C(=O)N[C@@H](CC(C)C)C(=O)N[C@@H](CCSC)C(=O)N[C@@H](Cc1c[nH]cn1)C(=O)N[C@@H](CCC(N)=O)C(=O)N[C@@H](CCCCNC(=N)N)C(=O)N[C@@H](C)C(=O)N[C@@H](CCCCN)C(=O)N[C@@H](Cc1c[nH]c2ccccc12)C(N)=O` [[M]PTH(1-14), [Ala^3,12,Gln^10,Har^11,Trp^14]PTH(1-14)amide, reference compound] (H-AVAEIQLMHQ[hArg]AKW-NH2) the “EMAX(obs.)” value ([1]; cAMP) was 340 ± 30 pmole/well.

With `CC[C@H](C)[C@H](NC(=O)[C@H](CCC(=O)O)NC(=O)C(C)(C)NC(=O)[C@@H](NC(=O)C(C)(C)N)C(C)C)C(=O)N[C@@H](CCC(N)=O)C(=O)N[C@@H](CC(C)C)C(=O)N[C@@H](CCSC)C(=O)N[C@@H](Cc1c[nH]cn1)C(=O)N[C@@H](CCC(N)=O)C(=O)N[C@@H](CCCCNC(=N)N)C(=O)N[C@@H](C)C(=O)N[C@@H](CCCCN)C(=O)N[C@@H](Cc1c[nH]c2ccccc12)C(N)=O` [[Aib^1,3,M]PTH(1-14), AibValAibGluIleGlnLeuMetHisGlnHarAlaLysTrp] (H-[Aib]V[Aib]EIQLMHQ[hArg]AKW-NH2) the “fold improvement of apparent binding affinity relative to [M]PTH(1-14)” value (human P1R) was 100 fold, the “fold improvement of apparent binding affinity relative to [M]PTH(1-14)” value (human P1R; listed as Aib-1,3) was “approximately 100 fold” and the IC50 (human P1R) was 1.3e-07 ± 2e-08 M. The “fold more potent in stimulating cAMP formation than [M]PTH(1-14)” value [1] was 130 fold, the “fold less potent than PTH(1-34)” value ([1]; cAMP) was 13 fold and the “EMAX(obs.)” value ([1]; cAMP) was 320 ± 30 pmole/well.

“H-AVSEIQLMHNLGKH-NH2 [PTH(1-14), reference compound]” was tested, and the EC50 ([1]; cAMP) was “N.R” and the EC50 ([1]; cAMP, listed as native PTH(1-14)) was “no activity could be detected”.

In the case of `CCCC[C@H](NC(=O)[C@H](CCCNC(=N)N)NC(=O)[C@H](CCC(=O)O)NC(=O)[C@@H](NC(=O)[C@H](CO)NC(=O)[C@H](C)NC(=O)[C@H](CC(C)C)NC(=O)[C@H](Cc1c[nH]cn1)NC(=O)[C@H](CCCCN)NC(=O)CNC(=O)[C@H](CC(C)C)NC(=O)[C@H](CC(N)=O)NC(=O)[C@H](Cc1c[nH]cn1)NC(=O)[C@H](CCCC)NC(=O)[C@H](CC(C)C)NC(=O)[C@H](CCC(N)=O)NC(=O)[C@@H](NC(=O)[C@H](CCC(=O)O)NC(=O)[C@H](CO)NC(=O)[C@@H](NC(=O)[C@H](C)N)C(C)C)[C@@H](C)CC)C(C)C)C(=O)N[C@@H](CCC(N)=O)C(=O)N[C@@H](Cc1c[nH]c2ccccc12)C(=O)N[C@@H](CC(C)C)C(=O)N[C@@H](CCCNC(=N)N)C(=O)N[C@@H](CCCCN)C(=O)N[C@@H](CCCCN)C(=O)N[C@@H](CC(C)C)C(=O)N[C@@H](CCC(N)=O)C(=O)N[C@@H](CC(=O)O)C(=O)N[C@H](C(=O)N[C@@H](Cc1c[nH]cn1)C(=O)N[C@@H](CC(N)=O)C(=O)N[C@@H](Cc1ccc(O)cc1)C(N)=O)C(C)C` [PTH(1-34), [Nle^8,21, Tyr^34]PTH(1-34)amide, reference compound], the IC50 (human P1R) is reported as 1.8e-08 ± 3e-09 M and the “EMAX(obs.)” value ([1]; cAMP) is reported as 350 ± 30 pmole/well.

With `CC[C@H](C)[C@H](NC(=O)[C@H](CCC(=O)O)NC(=O)C(C)(C)NC(=O)[C@@H](NC(=O)C(C)(C)N)C(C)C)C(=O)N[C@@H](CCC(N)=O)C(=O)N[C@@H](CC(C)C)C(=O)N[C@@H](CCSC)C(=O)N[C@@H](Cc1c[nH]cn1)C(=O)N[C@@H](CCC(N)=O)C(N)=O` [[Aib^1,3,M]PTH(1-10), [Aib^1,3,Gln^10]PTH(1-10)] (H-[Aib]V[Aib]EIQLMHQ-NH2) the “Binding IC50” value (human P1R) was “did not bind detachably” and the “Binding IC50” value (human P1R; M]PTH (1-10)) was “N.B”.
